# Experimental data taken from article PMC10307035, “Antiviral activity of singlet oxygen-photogenerating perylene compounds against SARS-CoV-2: Interaction with the viral envelope and photodynamic virion inactivation” (Virus Research, 2023).
# What was measured:
# [1] = tested on: feline infectious peritonitis virus (FIPV); type: cell-based, feline coronavirus (FCoV); settings: 0–10 µM
# [2] = Fluorescence quantum yield determination; type: physicochemical; settings: in DMSO, relative to rhodamin B
# Procedure: The samples’ steady-state fluorescence characteristics were measured in L-format using a Chronos DFD Fluorescence spectrometer (ISS, USA) equipped with a 300 W Cermax xenon arc lamp (ISS, USA), a concave holographic grating monochromator, and a PMT detector. The required amount of each sample was diluted in DMSO and measured in a 1-cm quartz cuvette at a constant temperature of 25 °C. The resulting data were evaluated using Vinci software (ISS, USA) and correlated to the utilized optical configuration.
# Absorption spectra were measured using a high-performance Specord S 600 diode spectrophotometer (Jena Analyst, DE). The required amount of each sample was diluted in DMSO, added to 1-cm quartz cuvette, and measured within the selected absorbance spectrum range, against pure DMSO as a blank, at a constant temperature of 25 °C. The results were evaluated using WinASPECT® software (Jena Analyst, DE).
# Fluorescence quantum yield was determined following a previously described protocol ([Kozma et al., 2005]; [Magde et al., 1999]; [Williams et al., 1983]). The kinetics of the incorporation of compounds into liposome membrane models was determined using steady-state fluorescence spectroscopy at a constant excitation and emission wavelength, according to the corresponding sample excitation and emission maxima. We added 50 μL of LNP suspension to 0.1 mM of the analyte in PBS, and monitored the increase of fluorescence intensity over the time range from 0 to 1400s. The preparation and characterization of the liposomal suspension is described in the supporting information (Fig. S4).
# 1. Supplementary material and methods
# 1.1. Fluorescence quantum yield (QY) determination
# The steady-state fluorescence and absorption data were used for quantum yield determination. QY was determined relative to a reference compound, rhodamin B. Absorbance in the range of 0.01–0.1 was used to calculate the QY. We plotted two calibration curves of integrated emission fluorescence intensity as a function of sample absorbance. […]
# [3] = ROS generation rate / quantum yield, DPBF bleaching in methanol; type: physicochemical; settings: in methanol, DPBF trap, 450–470 nm illumination, riboflavin as reference
# From the text: The ROS generation rate was estimated using the spectrophotometric method, based on the absorption changes of 1,3-diphenylisobenzofuran (DPBF, Sigma Aldrich, Germany) in methanol solution. Irreversible oxidation of DPBF by singlet oxygen results in peroxide formation, and DPBF bleaching. When light of 400–450 nm was used as actinic, DPBF bleaching occurred without any photosensitizer (PS) in solution. Therefore, to study photosensitized ROS generation, we used a white MCWHLP1 LED (Thorlabs, USA) with filters to limit the radiation to the 450–470 nm range (5.5 mW/cm^2).
# Spectrophotometric measurements were performed in a Qpod 2e (Quantum Northwest, USA) thermostated cuvette holder at 25 °C with magnetic stirring (500 rpm). Absorption spectra were recorded using a MayaPro spectrophotometer (Ocean Optics, USA) and a stabilized white light source with a SLS201L tungsten lamp (Thorlabs, USA). Illumination was uniform over the entire volume of the cuvette, to prevent artifacts associated with the diffusion of non-reacted components into the illuminated volume of the cuvette. In this case, the rate of irreversible bleaching of DPBF (412 nm) was the same under both continuous and pulsed irradiation with equal total irradiation time. Illumination was performed in a pulsed mode (Fig. S5A), with 1 s of illumination followed by 5 s of dark adaptation, during which the absorption spectrum of the PS-DPBF solution was recorded. Data processing was performed as previously described ([Gvozdev et al., 2020]).
# [4] = tested on: SARS-CoV-2 (Wuhan strain); test: Viral titer inhibition assay, SARS-CoV-2 in CaCo-2 cells; type: cell-based; settings: 0–10 µM
# [5] = ROS generation measurement with DMA trap in DMSO; type: physicochemical
# Procedure: ROS generation was also estimated using 9,10-dimethylanthracene (DMA), another specific fluorescent singlet oxygen trap, which forms nonfluorescent 9,10-dimethylanthracene endoperoxide after ROS-mediated DMA oxidation. Compounds (0, 0.1, 1, and 10 µM) in DMSO were mixed with DMA (0.5 µM), and these solutions were irradiated for 10 min at room temperature (RT) with light-emitting diodes (LED, 465–480 nm) having approximate power density of 30 mW/cm^2 (device description in Fig. S7). DMA fluorescence intensity was measured at ex/em wavelengths of 370/432 nm in the presence or absence of α-tocopherol (3 µg/mL) as an antioxidant. Singlet oxygen generation was accompanied by a decreased fluorescence signal of the DMA probe ([Zeng et al., 2020]).
# [6] = Spectrofluorometric analysis of interaction with liposomes; type: physicochemical; settings: 10 µM in PBS
# Vero cells = test: Light-induced cytotoxicity in Vero cells; type: cell-based, African Green Monkey; settings: 0–10 µM, 465–480 nm 10 min, then 24 h in the dark
# Procedure: To determine the light-induced cytotoxicity of the tested compounds, Vero cells were cultured for 24 h in 96-well plates to form a confluent monolayer, and then were treated with the tested compounds at concentrations of 0 to 10 µM. Then, the compound-treated cells were irradiated for 10 min at RT with LEDs (465–480 nm) having an approximate power density of 30 mW/cm^2 (device description in Fig. S7). As a negative control, compound-treated cells were incubated for 10 min in the dark at RT. Subsequently, both irradiated and non-irradiated cell monolayers were incubated in the dark at 37 °C for 24 h. Then, the cell culture medium was aspirated and the potential cytotoxicity of the tested perylene derivatives was determined based on cell viability using Cell Counting Kit-8 (Dojindo Molecular Technologies, Munich, Germany) according to the manufacturer's instructions.
compound,measurement,setting,value
CC(C)(C)C(=O)OCn1c(=O)c(C#Cc2ccc3c4cccc5cccc(c6cccc2c63)c54)cn(CC(=O)N(CCO)CCO)c1=O [Compound 13],replication of FIPV in CRFK cells,[1],potently suppressed the replication
same,fluorescence quantum yield,[2],90%
same,φROS (ROS generation quantum yield),[3],19.1 ± 0.2%
same,anti-SARS-CoV-2 activity in CaCo-2 cells,[4],sub-micromolar
same,"ROS generation, DMA trap, under blue light","[5]; 465–480 nm, 30 mW/cm^2, 10 min",significant bleaching
same,"ROS generation, DMA trap, in the dark or with α-tocopherol","[5]; 10 min, dark or α-tocopherol (3 µg/mL)",no/limited bleaching
same,penetration into liposomal membranes (in words),[6]; EPC/Chol 70/30 mol% liposomes,penetrated the liposomal membranes very quickly and efficiently
same,steady-state fluorescence signal after mixing with liposomes,"[6]; at 520 nm, after 1400 s",about 10^5 CPS
same,effect of blue light irradiation on cytotoxicity,Vero cells,dramatically increased
